{"source": "patent US20100068211A1", "about": "“USE OF ANTIRESORPTIVE COMPOUNDS TO PREVENT IONIZING RADIATION-INDUCED ACTIVATION OF OSTEOCLASTS AND RESULTING BONE LOSS” (priority 2008, published 2010)", "key": {"[1]": {"conditions": "cited from earlier work"}, "[2]": {"tested_on": "female C57BL/6 mice", "assay": "Risedronate treatment of radiation-induced bone loss in mice, microCT (Example 4)", "type": "in vivo", "conditions": "2 Gy whole body X-rays"}, "[3]": {"tested_on": "TRAP5b", "assay": "Serum TRAP5b ELISA, irradiated mice treated with risedronate (Example 4b)", "type": "in vivo", "conditions": "2 Gy irradiated mice, risedronate 30 μg/kg every other day, 7, 14 and 21 days", "procedure": "(§1) Tissue collection: 12 individuals from each group were sacrificed at 1, 2, and 3 weeks following the initial radiation exposure. Each mouse weighed then anesthetized using isoflurane, and blood was collected for serum analysis by cardiac puncture and exsanguination followed by cervical dislocation to ensure death. Serum was isolated by centrifugation, flash frozen in liquid nitrogen, and stored at −80° C. The left and right hind limbs as well as the vertebral column were collected for analysis. Hind limbs were removed and disarticulated. Tibiae and femora were cleaned of soft tissue and fixed in a solution of 10% formalin. After 48 hours, the bones were placed in 70% ethanol. The vertebral column was frozen at −20° C. to ensure microcomputed tomography (microCT) analysis of the fifth lumbar vertebrae (L5).\n(§2) Serum Chemistry: Serum samples were analyzed for circulating markers of bone formation and resorption. ELISA kits for osteocalcin (Biomedical Technologies, Inc., Stoughton, Mass.) and tartrate-resistant acid phosphatase (TRAP5b) (Immunodiagnostic Systems, Inc., Fountain Hills, Az.), respectively. The analyses were performed according to protocols provided by the manufacturers."}, "[4]": {"tested_on": "osteocalcin", "assay": "Serum osteocalcin ELISA, irradiated mice treated with risedronate (Example 4b)", "type": "in vivo", "conditions": "2 Gy irradiated mice; risedronate 30 μg/kg every other day", "procedure": "as §1, §2"}, "[5]": {"tested_on": "osteoclasts", "assay": "Histological analysis of osteoclast surface (TRAP staining), proximal tibia trabecular bone (Example 4c)", "type": "in vivo, mice", "conditions": "one week after exposure, but not two and three weeks; 2 Gy; risedronate 30 micrograms/kg every other day; versus non-irradiated control", "excerpt": "Osteoclast Identification: Following tomographic analysis, the left tibiae were decalcified using a formic acid solution (Immunocal; Decal Chemical Corp., Talman, N.Y.) and embedded in a glycol methacrylate resin (ImmunoBed™; Polysciences, Wasrrington, Pa.). The samples were cut into sagittal sections with a thickness of 3 μm. A subset of each group (n=5-6) was selected for analysis. Each slide was stained with TRAP using a commercial kit (Sigma, St. Louis, Mo.) to identify osteoclasts and counterstained with hematoxylin, Radiographs assessed the earliest time point of complete decalcification. […] Osteoclast presence was determined by tartrate resistant acid phosphatase (TRAP) staining of the slides using a commercial kit (Sigma; St. Louis, Mo.) and then counterstaining with hematoxylin (Sigma).\nHistomorphometric evaluation was performed from captured micrographs (200×) throughout the metaphysis, starting approximately 0.25 mm distal from the growth plate (in order to exclude the primary spongiosa) and extending a further 0.5 mm. Bone histomorphometric parameters for the proximal metaphysis of the tibia were measured as described in the report of the American Society of Bone and Mineral Research (ASBMR) Histomophometry Nomenclature Committee (22). Surface measurements were quantified relative to total bone surface (BS). […]"}, "[6]": {"tested_on": "female Sprague-Dawley rats", "assay": "Rat model, clinically-modeled radiation dose regimen with risedronate, tibia microCT (Example 5)", "type": "in vivo", "conditions": "risedronate 0.1 mg/kg/week subcutaneously; for Conn. Dens. (connectivity density) / SMI (structural model index) / Tb. N. (trabecular number) / Tb. Sp. (trabecular spacing) / Tb. Th (trabecular thickness) / BV/TV (bone volume fraction): mean ± SEM", "excerpt": "The right hindlimb from twenty-one week old female Sprague-Dawley rats were irradiated using a clinical irradiator (linear accelerator; LINAC; Wake Forest University). The dose applied was 16 Gy given as 4 fractions of 4 Gy each. This dose is the equivalent in terms of biological impacts on the hip during the course of radiation therapy for cancer, as determined by radiation biophysicists. Irradiations (all four total) were provided over the course of two weeks. Animals either received no radiation, radiation only, or radiation+risedronate injection (0.1 mg/kg/week subcutaneously). Administration of risedronate was provided one day prior to the first irradiation, then three times per week until sacrifice.\nAnimals were sacrificed two and four weeks after exposure. Hindlimbs were removed, and the tibiae were examined via microCT for several parameters. Meanings of the following trabecular parameters as they relate with conditions of increased resorption or atrophy are provided in Example 3 Methods Section: BV/TV; connectivity density (Conn.Dens.); trabecular thickness (Tb.Th.); trabecular number (Tb.N); and trabecular spacing (Tb.S.) were again determined. All measurements were taken within a region extending 1 mm distal to the growth plate."}, "[7]": {"tested_on": "rats", "conditions": "0.1 mg/kg/week administered subcutaneously; cited from earlier work"}, "[8]": {"tested_on": "aged rats", "conditions": "aged rats (9 months then allowed to mature 60 days); 0.02 or 0.04 mg/kg/wk; cited from earlier work"}, "[9]": {"tested_on": "OVX rat", "conditions": "OVX rats; administered orally; cited from earlier work"}, "[10]": {"tested_on": "minipigs", "conditions": "2.5 vs 0.5 mg/kg/day oral; cited from earlier work"}, "[11]": {"conditions": "realistic order stated in text; 1% assumed for dose conversion; cited from earlier work"}, "[12]": {"tested_on": "female B6 mice", "assay": "High dose zoledronate against radiation-induced bone loss in mice, microCT (Example 6)", "type": "in vivo", "conditions": "for radiation-induced bone loss: 12-week-old mice, 2 Gy whole body X-rays, single 10 mg/kg dose of zoledronate, microCT 2 weeks after irradiation, 10 mg/kg", "procedure": "The antiresorptive bisphosphonate zoledronate was selected as representative of the class of antiresorptive agents and was tested, at high doses of 10 mg/kg, for its ability to prevent radiation-induced bone loss.\n12-week-old female B6 mice were either 1) not irradiated and treated with a placebo injection, 2) irradiated with a 2 Gy whole body dose of X-rays and treated with a placebo injection, or 3) irradiated with a 2 Gy whole body dose of X-rays and treated with a single 10 mg/kg dose of […]. Bones were collected and examined by microCT 2 weeks after irradiation and zoledronate injection."}, "[13]": {"conditions": "risedronate 30 μg/kg subcutaneous every other day"}, "[14]": {"conditions": "2 Week Examination, 16 Gy (4 x 4 Gy)"}, "[15]": {"conditions": "4 Week Examination, 16 Gy (4 x 4 Gy)"}}, "note": "Marks after values point to notes of the source that are not given here.", "data": [{"compound": "Denosumab: fully human anti-RANKL antibody that binds RANK ligand and blocks its binding to RANK, formerly AMG162 (Amgen)", "values": [{"measurement": "effect of low doses on markers for bone formation", "setting": "[1]; 0.01 mg/kg and 0.03 mg/kg", "value": "reduced markers for bone formation, but for only temporary periods"}, {"measurement": "duration of efficacy", "setting": "[1]; 0.3, 1.0 and 3.0 mg/kg", "value": "> 30", "unit": "days"}, {"measurement": "performance compared with standard 90 mg dose of pamidronate", "setting": "[1]; 0.3, 1.0 and 3.0 mg/kg", "value": "performed similarly"}]}, {"compound": "O=P(O)(O)C(O)(Cc1cccnc1)P(=O)(O)O", "note": "[risedronate]", "values": [{"measurement": "radiation-induced bone loss at the 5th lumbar vertebra (FIG. 13)", "setting": "[2]; [13]", "value": "prevents rapid radiation-induced bone loss"}, {"measurement": "radiation-induced bone loss at the distal femur (FIG. 12)", "setting": "[2]; [13]", "value": "prevents rapid radiation-induced bone loss"}, {"measurement": "radiation-induced bone loss (proximal tibia, distal femur and 5th lumbar vertebra)", "setting": "[2]; risedronate 30 μg/kg/injection subcutaneous every other day, 1, 2 and 3 weeks", "value": "prevents radiation-induced bone loss"}, {"measurement": "serum TRAP5b levels (marker for osteoclast activity)", "setting": "[3]", "value": "reduced at all time points"}, {"measurement": "serum TRAP5b levels (marker for osteoclast activity)", "setting": "[3]; listed as Risedronate", "value": "reduced TRAP5b levels at all time points"}, {"measurement": "serum osteocalcin levels (marker for bone formation)", "setting": "[4]", "value": "trended to decrease levels"}, {"measurement": "osteoclast surface, proximal tibia trabecular bone", "setting": "[5]", "value": "greater osteoclast surface"}, {"measurement": "Conn. Dens. (connectivity density)", "setting": "[6]; [14]", "value": "95.4 ± 4.4^b l/mm^3"}, {"measurement": "SMI (structural model index)", "setting": "[6]; [14]", "value": "0.83 ± 0.07^e"}, {"measurement": "Tb. N. (trabecular number)", "setting": "[6]; [14]", "value": "4.02 ± 0.11^g"}, {"measurement": "Tb. Sp. (trabecular spacing)", "setting": "[6]; [14]", "value": "216 ± 8^g μm"}, {"measurement": "Tb. Th (trabecular thickness)", "setting": "[6]; [14]", "value": "90.1 ± 1.4^b"}, {"measurement": "BV/TV (bone volume fraction)", "setting": "[6]; 2 Week Examination, right hindlimb 16 Gy (4 fractions of 4 Gy), tibia microCT", "value": "31.9 ± 0.79^e %"}, {"measurement": "effect on radiation-induced trabecular deterioration relative with control", "setting": "[6]; 2 weeks, rats, 16 Gy", "value": "largely mitigated these changes"}, {"measurement": "sparing effect on connectivity of the trabeculae compared with the differences after only receiving radiation", "setting": "[6]; 2 weeks, rats", "value": 12, "unit": "%"}, {"measurement": "BV/TV (bone volume fraction)", "setting": "[6]; [15]", "value": "34.4 ± 1.2^b,^f %"}, {"measurement": "Conn. Dens. (connectivity density)", "setting": "[6]; [15]", "value": "109.3 ± 4.6^e l/mm^3"}, {"measurement": "SMI (structural model index)", "setting": "[6]; [15]", "value": "0.68 ± 0.12^a,^f"}, {"measurement": "Tb. N. (trabecular number)", "setting": "[6]; [15]", "value": "4.37 ± 0.09^f"}, {"measurement": "Tb. Sp. (trabecular spacing)", "setting": "[6]; [15]", "value": "193 ± 5^f μm"}, {"measurement": "Tb. Th (trabecular thickness)", "setting": "[6]; [15]", "value": "90.9 ± 1.1^c,^h"}, {"measurement": "evidence of trabecular deterioration via microCT relative with control", "setting": "[6]; Week 4, rats, 16 Gy", "value": "has disappeared by Week 4"}, {"measurement": "bone volume and fraction in GIO", "setting": "[7]", "value": "increased bone volume and fraction by reducing turnover"}, {"measurement": "histomorphometric changes in the tibial diaphysis", "setting": "[8]", "value": "no histomorphometric changes"}, {"measurement": "oral doses at which improvement in bone mineral density and preservation of microarchitecture generally occurred", "setting": "[9]", "value": "greater than 0.5 mg/kg/day"}, {"measurement": "preserving architecture, comparison of oral doses", "setting": "[10]", "value": "more pronounced in animal models (minipigs) using 2.5 mg/kg/day than 0.5 mg/kg/day"}, {"measurement": "oral bioavailability", "setting": "[11]", "value": "0.5-0.7%"}]}, {"compound": "O=P(O)(O)C(O)(Cn1ccnc1)P(=O)(O)O", "note": "[zoledronate]", "values": [{"measurement": "radiation-induced bone loss", "setting": "[12]", "value": "prevents radiation-induced bone loss"}, {"measurement": "radiation-induced bone loss", "setting": "[12]; listed as Zoledronate", "value": "prevented the bone loss"}, {"measurement": "bone mass versus untreated, non-irradiated levels", "setting": "[12]; growing mice, 2 Gy, single 10 mg/kg zoledronate, 2 weeks", "value": "increased to greater than untreated, non-irradiated levels"}]}]}
